Test results taken from PubChem BioAssay AID330 (DTP/NCI, 2004).
Several values for one entry are separate records, joined by “and”; a condition that tells them apart may be missing. Equal values may be shown once. Inconclusive results and toxic doses are left out. Rule for the calls: active = survival T/C of 150% or more; inactive = T/C below 125% in these data.

Tested on: P388 leukemia ip, CD2F1 mice, survival T/C
Assay: NCI In Vivo Anticancer Drug Screen. Data for tumor model P388 Leukemia (intraperitoneal) in CD2F1 (CDF1) mice
Settings: endpoint: median survival time, higher = longer survival
How it was run: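 Mice carrying the transplanted tumor received test compound or vehicle. Survival was recorded in each group, and the value is the treated-group measurement divided by that of the vehicle-treated control group.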

[1] = dose: 50.0 mg/kg/injection, schedule: Q01DX005 (ip), vehicle: Klucel (hydroxypropylcellulose) (HPC)
[2] = dose: 100.0 mg/kg/injection, schedule: Q01DX005 (ip), vehicle: Klucel (hydroxypropylcellulose) (HPC)
[3] = dose: 200.0 mg/kg/injection, schedule: Q01DX005 (ip), vehicle: Klucel (hydroxypropylcellulose) (HPC)
[4] = dose: 100.0 mg/kg/injection, schedule: Q01DX001 (ip), vehicle: Klucel (hydroxypropylcellulose) (HPC)
[5] = dose: 200.0 mg/kg/injection, schedule: Q01DX001 (ip), vehicle: Klucel (hydroxypropylcellulose) (HPC)
[6] = dose: 400.0 mg/kg/injection, schedule: Q01DX001 (ip), vehicle: Klucel (hydroxypropylcellulose) (HPC)
[7] = dose: 25.0 mg/kg/injection, schedule: Q01DX009 (ip), vehicle: saline with Tween-80
[8] = dose: 50.0 mg/kg/injection, schedule: Q01DX009 (ip), vehicle: saline with Tween-80
[9] = dose: 100.0 mg/kg/injection, schedule: Q01DX009 (ip), vehicle: saline with Tween-80
[10] = dose: 200.0 mg/kg/injection, schedule: Q01DX009 (ip), vehicle: saline with Tween-80
[11] = dose: 50.0 mg/kg/injection, schedule: Q01DX005 (ip), vehicle: saline with Tween-80
[12] = dose: 100.0 mg/kg/injection, schedule: Q04DX003 (ip), vehicle: saline
[13] = dose: 60.0 mg/kg/injection, schedule: Q01DX005 (ip), vehicle: saline with Tween-80
[14] = dose: 120.0 mg/kg/injection, schedule: Q01DX005 (ip), vehicle: saline with Tween-80
[15] = dose: 240.0 mg/kg/injection, schedule: Q01DX005 (ip), vehicle: saline with Tween-80

Measured: T/C

CC12CCCCC1=CC(=O)CC2 (centres undefined)
inactive: dose: 12.5 mg/kg/injection, schedule: Q01DX009 (ip), vehicle: other 97 % of control | dose: 25.0 mg/kg/injection, schedule: Q01DX009 (ip), vehicle: other 100 % of control | dose: 25.0 mg/kg/injection, schedule: Q01DX009 (ip), vehicle: saline + Tween-80 + alcohol 100 % of control | dose: 50.0 mg/kg/injection, schedule: Q01DX009 (ip), vehicle: other 107 % of control | dose: 50.0 mg/kg/injection, schedule: Q01DX009 (ip), vehicle: saline + Tween-80 + alcohol 100 % of control | dose: 100.0 mg/kg/injection, schedule: Q01DX009 (ip), vehicle: saline + Tween-80 + alcohol 104 % of control and 114 % of control | dose: 200.0 mg/kg/injection, schedule: Q01DX009 (ip), vehicle: saline + Tween-80 + alcohol 106 % of control

CNC(=O)c1ccccc1NC(=O)c1ccccc1N=[N+]=[N-]
inactive: [1] 100 % of control | [2] 100 % of control | [3] 98 % of control

O=C1C(O)C(c2ccccc2)c2ccccc2N1c1ccccc1 (centres undefined)
inactive: [4] 95 % of control | [5] 96 % of control | [6] 89 % of control

C1=C[N-]c2c3c(ccc2=C1)=CC=C[N-]3.C1=C[N-]c2c3c(ccc2=C1)=CC=C[N-]3.O=S(=O)(O)O.[Cu+2]
inactive: dose: 1.56 mg/kg/injection, schedule: Q04DX002 (ip), vehicle: Klucel (hydroxypropylcellulose) (HPC) 117 % of control | dose: 3.12 mg/kg/injection, schedule: Q04DX002 (ip), vehicle: Klucel (hydroxypropylcellulose) (HPC) 107 % of control | dose: 6.25 mg/kg/injection, schedule: Q04DX002 (ip), vehicle: Klucel (hydroxypropylcellulose) (HPC) 107 % of control | dose: 12.5 mg/kg/injection, schedule: Q04DX002 (ip), vehicle: Klucel (hydroxypropylcellulose) (HPC) 115 % of control

COC(=O)C1CC(=O)N(C)c2sc(C)c(C)c2C1=O (centres undefined)
inactive: [7] 103 % of control | [8] 93 % of control | [9] 94 % of control | dose: 100.0 mg/kg/injection, schedule: Q04DX003 (ip), vehicle: saline with Tween-80 97 % of control | [10] 94 % of control | dose: 200.0 mg/kg/injection, schedule: Q04DX003 (ip), vehicle: saline with Tween-80 93 % of control

CCCCN(CCCC)CCC(=O)c1ccc(OC)c2ccccc12
inactive: dose: 12.5 mg/kg/injection, schedule: Q01DX009 (ip), vehicle: saline with Tween-80 110 % of control | [7] 119 % of control | [8] 111 % of control

COc1ccc(CCNC(=O)C2CCCOC2C(Cl)Cl)cc1OC (centres undefined)
inactive: [11] 97 % of control | dose: 100.0 mg/kg/injection, schedule: Q01DX005 (ip), vehicle: saline with Tween-80 101 % of control | dose: 200.0 mg/kg/injection, schedule: Q01DX005 (ip), vehicle: saline with Tween-80 93 % of control

CCN(CC)CCNc1ccc(C)c2sc3c(O)cccc3c(=O)c12
inactive: [8] 104 % of control | [9] 100 % of control | [10] 104 % of control

O=C(O)CSC(CC(=O)O)C(F)(F)C(F)(F)C(F)(F)F (centres undefined)
inactive: dose: 176.0 mg/kg/injection, schedule: Q04DX003 (ip), vehicle: saline 100 % of control | dose: 264.0 mg/kg/injection, schedule: Q04DX003 (ip), vehicle: saline 95 % of control

Cc1cnc(C)n2ncnc12
inactive: [12] 93 % of control | dose: 200.0 mg/kg/injection, schedule: Q04DX003 (ip), vehicle: saline 95 % of control | dose: 400.0 mg/kg/injection, schedule: Q04DX003 (ip), vehicle: saline 88 % of control

CCOC(=O)C(Nc1cc([N+](=O)[O-])ccc1C(=O)N1CCCCC1)(C(=O)OCC)N1CCCCC1
inactive: dose: 60.0 mg/kg/injection, schedule: Q01DX005 (ip), vehicle: Klucel (hydroxypropylcellulose) (HPC) 96 % of control | dose: 120.0 mg/kg/injection, schedule: Q01DX005 (ip), vehicle: Klucel (hydroxypropylcellulose) (HPC) 92 % of control | dose: 240.0 mg/kg/injection, schedule: Q01DX005 (ip), vehicle: Klucel (hydroxypropylcellulose) (HPC) 89 % of control

Nc1cccc2c1C(=O)c1nc3ccccc3nc1C2=O
inactive: dose: 100.0 mg/kg/injection, schedule: Q01DX001 (ip), vehicle: Klucel + Tween-80 98 % of control | dose: 200.0 mg/kg/injection, schedule: Q01DX001 (ip), vehicle: Klucel + Tween-80 94 % of control | dose: 400.0 mg/kg/injection, schedule: Q01DX001 (ip), vehicle: Klucel + Tween-80 94 % of control

CC(=O)O.[Pb]
inactive: dose: 25.0 mg/kg/injection, schedule: Q04DX003 (ip), vehicle: saline with Tween-80 100 % of control | dose: 50.0 mg/kg/injection, schedule: Q04DX003 (ip), vehicle: saline with Tween-80 100 % of control | [12] 91 % of control

O=C1CCCc2cc([N+](=O)[O-])ccc2N1
inactive: [4] 101 % of control | [5] 103 % of control | [6] 102 % of control

CC(=O)CCC1C=CC(=O)O1 (centres undefined)
inactive: dose: 60.0 mg/kg/injection, schedule: Q01DX005 (ip), vehicle: saline 112 % of control | dose: 120.0 mg/kg/injection, schedule: Q01DX005 (ip), vehicle: saline 103 % of control | dose: 240.0 mg/kg/injection, schedule: Q01DX005 (ip), vehicle: saline 111 % of control

COC(=O)C1CC2CC(O)CN(CCc3c1[nH]c1ccccc31)C2 (centres undefined)
inactive: dose: 3.63 mg/kg/injection, schedule: Q01DX005 (ip), vehicle: Klucel (hydroxypropylcellulose) (HPC) 104 % of control | dose: 7.25 mg/kg/injection, schedule: Q01DX005 (ip), vehicle: Klucel (hydroxypropylcellulose) (HPC) 100 % of control | dose: 14.5 mg/kg/injection, schedule: Q01DX005 (ip), vehicle: Klucel (hydroxypropylcellulose) (HPC) 104 % of control | dose: 29.0 mg/kg/injection, schedule: Q01DX005 (ip), vehicle: Klucel (hydroxypropylcellulose) (HPC) 89 % of control

CCOC(=O)C1(CC)CC(OCC)OC1=O (centres undefined)
inactive: [1] 100 % of control | [2] 93 % of control | [3] 97 % of control

COc1ccc(C2=NNC(=O)C3NC(=O)C(C#N)=C(C(=O)NN)C23c2ccc(OC)cc2)cc1 (centres undefined)
inactive: [13] 99 % of control | [14] 91 % of control | [15] 89 % of control

COc1ccc(C2OC3=C(Nc4ccc([N+](=O)[O-])cc4N3)C2=O)cc1 (centres undefined)
inactive: dose: 0.93 mg/kg/injection, schedule: Q01DX005 (ip), vehicle: Klucel (hydroxypropylcellulose) (HPC) 89 % of control | dose: 1.87 mg/kg/injection, schedule: Q01DX005 (ip), vehicle: Klucel (hydroxypropylcellulose) (HPC) 93 % of control | dose: 3.75 mg/kg/injection, schedule: Q01DX005 (ip), vehicle: Klucel (hydroxypropylcellulose) (HPC) 92 % of control

CC(C)CCc1c(N)nc(N)[nH]c1=O
inactive: dose: 12.5 mg/kg/injection, schedule: Q01DX005 (ip), vehicle: saline with Tween-80 101 % of control | dose: 25.0 mg/kg/injection, schedule: Q01DX005 (ip), vehicle: saline with Tween-80 97 % of control | [11] 97 % of control

O=C(CN=Cc1ccc(Cl)cc1Cl)NNC(=O)c1ccc(Cl)cc1Cl
inactive: [1] 92 % of control | [2] 96 % of control | [3] 92 % of control

CC(C)c1ccc(/C=C(/NC(=O)c2ccccc2)c2nc3ccccc3s2)cc1
inactive: [13] 104 % of control | [14] 111 % of control | [15] 118 % of control
